Measured values from the METLIN SMRT retention time set (Domingo-Almenara et al. 2019).

Test: gradient 5% acetonitrile 3 min, to 50% in 2 min, to 85% in 15 min, held 3 min, 100 µL/min
Settings: column: Zorbax Extend-C18 2.1 x 50 mm; eluents: water / acetonitrile, 0.1% formic acid
Summary of the method: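 Standards, all pure, were combined into mixtures of ~100 molecules and run at 100 μL/min on a Zorbax Extend-C18 column (2.1 × 50 mm, 1.8 μm) with water and acetonitrile, each containing 0.1% formic acid. A coupled quadrupole time-of-flight mass spectrometer operated in positive and negative ionization mode. Retention time values come from computationally picked adduct peaks, each inspected manually.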

Row | SMILES | RP-LC retention time
1 | Cc1nc(-c2ccc3c(c2)CCN3C(=O)Cc2ccsc2)cs1 | 980 s
2 | CC1(CNC(=O)c2ccc3c(c2)OCO3)CCOCC1 | 664 s
3 | COc1ccc(-c2nc3ncccn3c2Nc2ccccc2)cc1 | 700 s
4 | CCc1noc(C2(NC(=O)c3nn(C)c4ccccc34)CCCCC2)n1 | 1010 s
5 | CSc1ccc(-c2nc3cnccn3c2Nc2ccc(C(N)=O)cc2)cc1 | 658 s
6 | COC(=O)N1CCN(CCNC(=O)C2(c3ccc(Cl)cc3)CCCC2)CC1 | 592 s
7 | CCc1nc(-c2cccc(-c3noc(COc4ccccc4)n3)c2)cs1 | 1300 s
8 | CCn1c(=O)oc2cc(-c3noc(COc4ccccc4)n3)ccc21 | 1020 s
9 | COc1ccc(F)cc1S(=O)(=O)NCC1(c2cccs2)CC1 | 933 s
10 | COc1ccc(-c2ncc3c(n2)CCN(C(=O)Cc2ccc(OC)cc2Cl)C3)cc1 | 987 s
11 | Cc1nc(-c2ccc3c(c2)CCN3C(=O)Cc2c[nH]c3ccccc23)cs1 | 950 s
12 | O=S(=O)(c1ccc(F)c(Cl)c1)N1CC(F)(F)C[C@H]1CN1CCc2ccccc2C1 | 791 s
13 | COc1ccc(C)cc1NS(=O)(=O)c1cc2c3c(c1)CCC(=O)N3CCC2 | 973 s
14 | O=C(NCC1(c2cccs2)CC1)c1cnccn1 | 736 s
15 | Cc1ccc(NC(=O)Nc2nccn(-c3cccc(Cl)c3)c2=O)cc1C | 1090 s
16 | COCCNC(=O)C(=O)NCCc1cccc(OC)c1 | 650 s
17 | Cc1noc([C@@H]2CN(C(=O)c3ccoc3C)C[C@H]2C(N)=O)n1 | 599 s
18 | Cn1cnnc1SCCNC(=O)c1cc(-c2ccc(F)cc2)c[nH]1 | 659 s
19 | Cc1sc2ccn(Cc3ccc(F)cc3)c(=O)c2c1C(=O)NCc1ccco1 | 912 s

Row | SMILES | RP-LC retention time
20 | O=C1CCCc2cc(S(=O)(=O)N3CCN(c4ccccn4)CC3)ccc2N1 | 589 s
21 | CCn1cc(-c2ccc(C)cc2)cc1C(=O)N1CCN(C)CC1 | 657 s
22 | COc1ccc(-c2cn3c(CC(=O)Nc4ccc(Cl)c(C(F)(F)F)c4)csc3n2)cc1OC | 882 s
23 | CCS(=O)(=O)c1nc2ccc(NS(=O)(=O)c3c(C)n[nH]c3C)cc2s1 | 693 s
24 | COc1ccc2c(c1)C1(CCN(C(=O)c3ccc(F)cc3)C1)C(=O)N2C (stereo unspecified) | 759 s
25 | Cc1ccc(F)c(NS(=O)(=O)c2ccc(-c3nnc(C4CCC4)o3)o2)c1 | 924 s
26 | O=c1c2oc3ccccc3c2ncn1Cc1nc(-c2ccc3c(c2)OCO3)no1 | 909 s
27 | CC(=O)Nc1ccc(C2(C(=O)NCc3cccs3)CCC2)cc1 | 710 s
28 | CCSc1nc2ccc(NS(=O)(=O)c3cc(F)cc(F)c3)cc2s1 | 1050 s
29 | COc1ccc(NC(=O)N(C)CC2CCOCC2)cc1F | 682 s
30 | Cc1cccn2cc(-c3cccc(NS(=O)(=O)c4ccc(Br)cc4)c3)nc12 | 700 s
31 | CCC(CC)C(=O)Nc1nc(-c2ccc3c(c2)N(C)C(=O)CO3)cs1 | 929 s
32 | CCn1c(=O)n(CC)c2cc(S(=O)(=O)C3CCCCC3)c(NC(C)=O)cc21 | 791 s
33 | Cc1ccc(Nc2c(-c3ccc(N(C)C)cc3)nc3ccc(C)cn23)cc1 | 839 s
34 | O=S(=O)(c1ccc2nncn2c1)N(Cc1ccccc1F)c1ccc2c(c1)OCCO2 | 745 s
35 | COc1cc(NCc2ccccc2O)c2ncccc2c1 | 758 s
36 | NS(=O)(=O)c1cccnc1Nc1cc(F)cc(F)c1 | 858 s
37 | O=C(CSc1ccc(F)cc1)NCC1(c2ccc(F)cc2)CC1 | 909 s
38 | O=C(Cc1c(F)cccc1Cl)N1CCN(Cc2ccsc2)CC1 | 570 s

The remaining lines, values ahead:

Row | RP-LC retention time | SMILES
39 | 726 s | Cc1noc(C)c1CNC(=O)c1cc(F)ccc1Cl
40 | 1030 s | CCCn1cc2c3c(cccc31)CN(C(=O)COc1ccc(F)cc1)CC2
41 | 672 s | Cn1cc(-c2ccc(F)cc2)cc1C(=O)NCCN1CCCCC1
42 | 1150 s | Cc1nn(-c2nc(-c3ccc(F)cc3)cs2)c(C)c1CC(=O)Nc1ccccc1
43 | 668 s | O=C(Nc1cccc2nsnc12)C1CCN(c2ccc(-c3cccs3)nn2)CC1
44 | 583 s | Cn1ncc2c3ccccc3n(CC(=O)NCCc3cnc[nH]3)c2c1=O
45 | 1200 s | COc1ccc(Cl)cc1NC(=O)C(C)Oc1cc(C(F)(F)F)c2c(C)nn(C)c2n1 (stereo unspecified)
46 | 610 s | CCN(CC)S(=O)(=O)c1ccc2c(c1)CC(C(=O)NCCN1CCCCC1)N2C(C)=O (stereo unspecified)
47 | 697 s | CCn1c(=O)n(CC(=O)N2CCN(c3ccccn3)CC2)c(=O)c2cnc(-c3ccccc3)nc21
48 | 734 s | CCN(Cc1cccnc1)C(=O)CN(c1ccc(OC)nc1)S(=O)(=O)c1ccccc1C
49 | 841 s | O=C(N1c2ccccc2CC1c1nnc(C2CCOCC2)o1)C1(c2ccccc2)CC1 (stereo unspecified)
50 | 1090 s | CCn1c(=O)c2cc(C(=O)Nc3ccc4c(c3)CCC4)nn2c2ccccc21
51 | 616 s | COCCC1CCN(C(=O)CCc2c(C)nn(C)c2C)CC1
52 | 846 s | Cc1ccc2[nH]cc(CCN3CC(C(=O)NCc4ccccc4Cl)CC3=O)c2c1 (stereo unspecified)
53 | 596 s | O=C(NC1CCN(Cc2ccccc2)CC1)c1c(OCC2CC2)cc(=O)n2c1CCCCC2
54 | 766 s | COc1ccc(-c2ccc(N3CCN(c4ccccc4)CC3)nn2)cc1S(=O)(=O)N1CCOCC1
55 | 718 s | COc1cccc(NC(=O)N(Cc2nnc3n2CCCCC3)c2cccc(OC)c2)c1
56 | 673 s | Cc1ccccc1-c1noc2ncnc(N3CCN(c4ccccn4)CC3)c12
57 | 810 s | COc1ccc(NC(=O)C(C)C2CCN(C(=O)Nc3ccccc3)CC2)c(OC)c1 (stereo unspecified)
58 | 538 s | Cc1ccnc(N2CCCC(C(=O)N3CCN(C)CC3)C2)n1 (stereo unspecified)
59 | 579 s | OCC1CN(c2ccncn2)CC12CCN(Cc1c[nH]c3ccccc13)CC2 (stereo unspecified)
60 | 571 s | Cc1cc(=O)n(CC(=O)Nc2ccccc2C#N)cn1
61 | 666 s | COc1ccc(CCNCC(O)Cn2c3c(c4ccccc42)CCN(C)C3=O)cc1OC (stereo unspecified)
62 | 906 s | CC1(C(=O)NC2CCN(c3ccc(=O)n(CCOc4ccccc4)n3)C2)CCCCC1 (stereo unspecified)
63 | 784 s | Cc1ccc(S(=O)(=O)N2CCC(n3cnnc3C(C)C)CC2)c(C)c1
64 | 896 s | Cc1nn(C)c(C)c1S(=O)(=O)N1CCC(OCCOCc2ccccc2)CC1
65 | 570 s | Cc1noc(C)c1S(=O)(=O)NCCn1c(C)cnc1-c1ccncc1

Row | RP-LC retention time | SMILES
66 | 1230 s | CCOc1ccc(C2Cn3nnc(-c4nc(-c5ccccc5Br)no4)c3CO2)cc1 (stereo unspecified)
67 | 654 s | Cc1ccccc1CC(=O)NC(C)C(=O)Nc1nc2ccccc2[nH]1 (stereo unspecified)
68 | 723 s | COCc1c(C(=O)O)nnn1-c1ccc(F)c(C)c1
69 | 573 s | Cn1c(=O)n([C@H]2CCN(C(=O)c3ccc(Cn4ccnc4)o3)C2)c2ncccc21
70 | 1010 s | CCOC(=O)c1noc2ncnc(N3CCc4ccccc4C3)c12
71 | 614 s | CC(C)CCNC(=O)C1(CCO)CCN(c2ncccn2)C1 (stereo unspecified)
72 | 596 s | Cc1ccc(C(=O)NC2CCN(c3nnc4ccccn34)CC2)cc1N1CCCC1=O
73 | 826 s | O=C(Cc1csc2nc(-c3ccccc3)cn12)N1CCc2ccccc2C1
74 | 726 s | CCOC(=O)Cn1nc2oc(=O)c(CCN3CCN(c4ccccc4OC)CC3)c(C)c2c1C
75 | 751 s | CCS(=O)(=O)N1CCCN(c2ccc(=O)n(-c3ccc(C)cc3)n2)CC1
76 | 804 s | CN1c2ccccc2C(=O)NC12CCN(C(=O)Nc1cccc(Cl)c1)CC2
77 | 614 s | CCN1CCCC1CNC(=O)Cn1c(=O)c2cccn2c2ccc(F)cc21 (stereo unspecified)
78 | 581 s | CCCCN1CCN(C(=O)c2nc(N3CCSCC3)c3c(C)cc(C)nc3n2)CC1
79 | 662 s | CCCCN1C(=O)c2ccccc2C(C(=O)NCc2ccncc2)C12CCCCC2 (stereo unspecified)
80 | 740 s | CCN1C(=O)C2(CCN(C(=O)NC(C)C)CC2)c2ccccc21
81 | 678 s | Cc1nnc(N2CCCC(C(=O)NCCCOC(C)C)C2)c2nn(-c3ccccc3)c(C)c12 (stereo unspecified)
82 | 636 s | Cc1ccc(N2CCN(Cc3nc4nc(C)cc(N5CCOCC5)n4n3)CC2)cc1
83 | 781 s | CSc1ccc(CNC(=O)Cn2cnc3nc4c(cc3c2=O)CC(C)CC4)cc1 (stereo unspecified)
84 | 795 s | COc1cc(NC(=O)Cn2nc3c(N4CCSCC4)nccn3c2=O)cc(OC)c1
85 | 785 s | CCC(C)NC(=O)c1ccc2ccnc(N3CCN(c4ccc(F)cc4)CC3)c2c1 (stereo unspecified)
86 | 1040 s | CCN(CC)S(=O)(=O)c1cc(-c2nnc(-c3ccccc3Cl)o2)ccc1OC
87 | 1020 s | Cc1cc(Cl)ccc1NC(=O)c1cccn1Cc1noc(C2CC2)n1
88 | 931 s | O=C(COc1ccc(F)cc1)Nc1cnc(N2CCCCC2)nc1
89 | 661 s | CCN1CCN(c2nc3cc(C(=O)OC)ccc3c(=O)n2-c2cc(OC)cc(OC)c2)CC1
90 | 698 s | COc1cccc(C(=O)N2C[C@@H]3C[C@H]2C[C@@H]3NC(=O)c2cccs2)c1OC
91 | 818 s | Cc1ccc(CNC(=O)N2CC=C(c3cn(C)c4ncccc34)CC2)cc1
